Laboratory results from patent US20090111741A1, “METHOD FOR TREATING AND/OR […] SEEKING BEHAVIOR” (priority 2007, published 2009).
Where two headings read alike, the source gives them in different places. Square brackets hold non-standard residues; d marks the D form. Peptide text beside a SMILES is read from it.

Experiments:
KOR = KOR (Rattus norvegicus, UniProt P34975); assay: antagonist activity (adenylyl cyclase assay); assay type: cell-based
[1] = observation of side effects in mice; conditions: mouse, in vivo
Description: The ability of zyklophin to cross the BBB allows for any type of systemic administration, such as subcutaneous administration. Accordingly, zyklophin can be administered in a manner other than, but including, intercerebroventricular administration. Moreover, the ability of zyklophin to cross the BBB allows for a myriad of formulation opportunities, where the formulation can be prepared for a suitable mode or route of administration. As a consequence of having high selectivity for KOR and BBB permeability, zyklophin is a favorable drug candidate and as a lead drug for derivatizations and analoging. […] The mice data is discussed in more detail herein and in the incorporated references.

in vitro = conditions: rat, brain homogenate, half life (t1/2) in rat brain homogenate
[2] = biological target: kappa-opioid receptor (KOR) (Rattus norvegicus, UniProt P34975); assay: binding affinity (Ki) at KOR
Sequence of kappa-opioid receptor (KOR) (Rattus norvegicus, UniProt P34975) (P34975 whole entry): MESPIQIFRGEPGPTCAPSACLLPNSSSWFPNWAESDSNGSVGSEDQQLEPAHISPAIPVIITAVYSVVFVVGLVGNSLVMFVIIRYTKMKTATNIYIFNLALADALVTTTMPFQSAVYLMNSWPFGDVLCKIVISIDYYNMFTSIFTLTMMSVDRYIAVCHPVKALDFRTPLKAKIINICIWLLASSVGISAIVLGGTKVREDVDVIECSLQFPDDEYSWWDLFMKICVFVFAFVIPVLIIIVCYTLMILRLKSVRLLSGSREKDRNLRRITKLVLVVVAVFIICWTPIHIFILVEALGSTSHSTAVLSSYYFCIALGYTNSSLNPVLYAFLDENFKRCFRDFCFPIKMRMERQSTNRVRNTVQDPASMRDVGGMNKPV

[3] = biological target: T1, kappa-opioid receptor (KOR) (Mus musculus, UniProt P33534); conditions: animal models, after a single dose; cited from earlier work
T1 construct: from tissue; host or cells: living C57B1/6J mice (central and peripheral KOR)
T1 sequence (P33534 whole entry): as the sequence (P34975 whole entry) above, with E11D, A17S, P51S, V308A counted along it

[4] = metabolic stability in rat plasma; assay type: in vitro ADME; conditions: read-out: Rat plasma t1/2
Description: The metabolic stability of the peptides depends on the modifications to the peptides. […] As expected, peptides without N-terminal modification were rapidly metabolized (Table 2), presumably by aminopeptidases. […] Homogenization is likely to rupture cell membranes, releasing intracellular proteases that could metabolize these peptides, so that this system may not accurately reflect the metabolism that occurs in vivo. Endopeptidases capable of metabolizing Dyn A are also present on red blood cells, and can rapidly metabolize some Dyn A-(1-11) amide analogs, e.g. arodyn.

[5] = BBMEC permeability (in-vitro model of the blood-brain barrier); conditions: for Papp: pH 7.4
[6] = rat, brain homogenate, half life (t1/2) in rat brain homogenate
[7] = rat, blood
kappa-opioid receptor = conditions: in vivo; cited from earlier work

Sequence of KOR (P34975 whole entry): as the sequence (P34975 whole entry) above

Row | SMILES | duration of action of KOR antagonism (literature) [3] | half-life [4] [h] | efflux ratio [5] | Papp [5] [×10⁻⁶ cm/s] | other results
1 | N=C(N)NCCC[C@@H]1NC(=O)[C@H](CCCNC(=N)N)NC(=O)[C@H](NC(=O)[C@H](Cc2ccccc2)NC(=O)CNC(=O)CNC(=O)[C@H](Cc2ccc(O)cc2)NCc2ccccc2)CC(=O)NC[C@@H](C(=O)N[C@@H](CCCNC(=N)N)C(=O)N2CCC[C@H]2C(=O)N[C@@H](CCCCN)C(N)=O)NC1=O [zyklophin, [N-benzylTyr^1,cyclo(D-Asp^5,Dap^8)]Dyn A-(1-11) amide] | – | – | – | – | Kb (KOR): 84 nM; side effects in mice [1]: no unwanted side affects have been observed; half-life (in vitro): 1.17 h; Ki [2]: 30 ± 2 nM
2 | Oc1ccc2c3c1O[C@H]1c4[nH]c5c(c4C[C@@]4(O)[C@@H](C2)N(CC2CC2)CC[C@]314)C[C@@]1(O)[C@H]2Cc3ccc(O)c4c3[C@@]1(CCN2CC1CC1)[C@H]5O4 [nor-binaltorphimine] | prolonged duration of action | – | – | – | –
3 | CC[C@H](C)[C@H](NC(=O)[C@H](CCCNC(=N)N)NC(=O)[C@H](CCCNC(=N)N)NC(=O)[C@H](CC(C)C)NC(=O)[C@H](Cc1ccccc1)NC(=O)CNC(=O)CNC(=O)[C@H](Cc1ccc(O)cc1)NC(C)=O)C(=O)N[C@@H](CCCNC(=N)N)C(=O)N1CCC[C@H]1C(=O)N[C@@H](CCCCN)C(N)=O [Ac-Dyn A-(1-11)NH2] | – | 1.85 ± 0.283 | 2.4 | 7.1 ± 2.3 | –
4 | CC[C@H](C)[C@H](NC(=O)[C@H](CCCN=C(N)N)NC(=O)[C@H](CCCN=C(N)N)NC(=O)[C@H](CC(C)C)NC(=O)[C@H](Cc1ccccc1)NC(=O)CNC(=O)CNC(=O)[C@@H](N)Cc1ccc(O)cc1)C(=O)N[C@@H](CCCN=C(N)N)C(=O)N1CCC[C@H]1C(=O)N[C@@H](CCCCN)C(N)=O [Dyn A-(1-11)NH2, Dynorphin A-(1-11) amide] | – | < 0.0333 | 0.9 | 3.8 ± 1.3 | –
5 | CC(=O)N[C@@H](Cc1ccccc1)C(=O)N[C@@H](Cc1ccccc1)C(=O)N[C@@H](Cc1ccccc1)C(=O)N[C@@H](CCCNC(=N)N)C(=O)N[C@@H](CC(C)C)C(=O)N[C@@H](CCCNC(=N)N)C(=O)N[C@@H](CCCNC(=N)N)C(=O)N[C@H](C)C(=O)N[C@@H](CCCNC(=N)N)C(=O)N1CCC[C@H]1C(=O)N[C@@H](CCCCN)C(N)=O [Arodyn, Ac[Phe^1,2,3,Arg^4,D-Ala^8]Dyn A-(1-11) amide] (Ac-FFFRLRR[dA]RPK-NH2) | – | 1.73 ± 0.0667 | 1.6 | 7.6 ± 3 | half-life [6]: 0.167 to 0.183 h; half-life [7]: < 2 min
6 | CC(C)[C@@H](CN1CC[C@@](C)(c2cccc(O)c2)[C@@H](C)C1)NC(=O)[C@H]1Cc2ccc(O)cc2CN1 [JDTic, (3R)-7-hydroxy-N-{(1S)-1-{[(3R,4R)-4-(3-hydroxyphenyl)-3,4-dimethyl-1-piperidinyl]methyl}-2-methylpropyl}-1,2,3,4-tetrahydro-3-isoquinolinecarbox-amide] | prolonged duration of action | – | – | – | effect on stress-induced reinstatement of cocaine seeking (literature) (kappa-opioid receptor): suppress stress-induced reinstatement of cocaine self-administration
